Some test systems named below: UO-31 renal; NCI-H226 lung; SF-268 CNS; OVCAR-3 ovarian; MDA-MB-231 breast; SN12C renal; OVCAR-8 ovarian; SK-MEL-2 melanoma; K-562 leukemia; SR leukemia.
Common to all, as to assay: growth of human tumour cells (NCI), 48 h

Our source for the GI50 and TGI values is PubChem BioAssay (NCI).

“And” between values parts separate entries of the source, which are not always exact repeats. Equal values may be shown once.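 Test compounds were applied to cells in 96-well plates for 48 hours at 5 doses. GI50 is the concentration that inhibits growth by half. The concentration for full growth arrest is given as TGI.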

In the case of `CC(C)(C)OC(=O)N1CCc2c(sc3ncnc(N/N=C/c4cccc5ccccc45)c23)C1`, the GI50 with UO-31 renal is 2.68 µM; in the assay with NCI-H226 lung it was 5.29 µM; with SF-268 CNS it was 4.59 µM; in the assay on OVCAR-3 ovarian, 3.95 µM; with MDA-MB-231 breast it was 5.93 µM; in the assay on SN12C renal, 5.04 µM. Moreover, the GI50 is 4.23 µM in the assay with OVCAR-8 ovarian, 4.38 µM in the assay with SK-MEL-2 melanoma, 2.88 µM in the assay with K-562 leukemia and 2.82 µM in the assay with SR leukemia. Besides, the TGI in the assay with UO-31 renal was 14.9 µM; with NCI-H226 lung it was 34.7 µM; in the assay with SF-268 CNS, above 100 µM; with OVCAR-3 ovarian, 77.7 µM; in the assay on MDA-MB-231 breast, above 100 µM; in the assay on SN12C renal, 32.9 µM. In addition, the TGI in the assay with OVCAR-8 ovarian was above 100 µM; in the assay with SK-MEL-2 melanoma, 25.9 µM; in the assay with K-562 leukemia, 62.4 µM; in the assay on SR leukemia it was 16 µM.
Regarding `CC1(C)OC2[C@@H](CNC(=O)NC(=O)NC(=O)CI)O[C@@H](n3cnc4c(NC(=O)Nc5ccccc5)ncnc43)[C@H]2O1` (stereo partly specified), the GI50 in the assay on UO-31 renal was 1.34 µM; in the assay on NCI-H226 lung, 8.96 µM; in the assay with SF-268 CNS, 8.22 µM; with OVCAR-3 ovarian it was 5.72 µM; with MDA-MB-231 breast it was 9.42 µM; in the assay with SN12C renal, 10.3 µM. The GI50 in the assay on OVCAR-8 ovarian was 9.45 µM; in the assay on SK-MEL-2 melanoma, 10.5 µM; in the assay with K-562 leukemia it was 2.3 µM; in the assay with SR leukemia, 0.954 µM. The TGI came out at 4.27 µM in the assay on UO-31 renal; 20.3 µM with NCI-H226 lung; 17.1 µM in the assay on SF-268 CNS; 12.6 µM in the assay with OVCAR-3 ovarian; 19.4 µM with MDA-MB-231 breast; 28.6 µM in the assay with SN12C renal. Besides, the TGI was determined as 22.7 µM in the assay on OVCAR-8 ovarian, 21.5 µM with SK-MEL-2 melanoma, 10.5 µM in the assay on K-562 leukemia and 2.3 µM in the assay on SR leukemia.
Regarding `COc1cc(C2NC(=O)c3ccccc3N2)ccc1OCCCCCOc1c(OC)cc(C2=NOC(c3cc(OC)c(OC)c(OC)c3)C2)cc1OC` (stereo unspecified), the GI50 was 15.1 µM in the assay on UO-31 renal; 20.8 µM in the assay on SF-268 CNS; 12.6 µM with OVCAR-3 ovarian; 14.8 µM with MDA-MB-231 breast; 31.3 µM with SN12C renal; 25.2 µM with OVCAR-8 ovarian. For the same compound, the results for the GI50 in the assay on SK-MEL-2 melanoma, in the assay with K-562 leukemia and in the assay on SR leukemia were 35.9 µM, 0.431 µM and 0.947 µM, respectively. Moreover, the TGI is above 100 µM in the assay on UO-31 renal; above 100 µM in the assay with NCI-H226 lung; above 100 µM in the assay on SF-268 CNS; 44 µM with OVCAR-3 ovarian; above 75.4 µM with MDA-MB-231 breast; above 100 µM with SN12C renal. Also, the TGI with OVCAR-8 ovarian, in the assay on SK-MEL-2 melanoma, in the assay on K-562 leukemia and in the assay on SR leukemia was above 100 µM throughout.
In the case of `CC[C@@H]1C(=O)N(C)c2cnc(Nc3ccc(C(=O)NC4CCN(C)CC4)cc3OC)nc2N1C1CCCC1`, the GI50 was 0.323 µM and 0.631 µM with UO-31 renal; 0.343 µM and 0.982 µM in the assay on NCI-H226 lung; 0.0156 µM and < 0.01 µM in the assay on SF-268 CNS; 0.00353 µM and < 0.01 µM in the assay on OVCAR-3 ovarian; 0.00552 µM with MDA-MB-231 breast; 0.0233 µM and 0.039 µM with SN12C renal. The GI50 with OVCAR-8 ovarian was 0.00414 µM; with K-562 leukemia, 0.00367 µM and < 0.01 µM; in the assay on SR leukemia, 0.00182 µM and < 0.01 µM. The TGI in the assay on UO-31 renal is > 3.97 µM and 15.1 µM; in the assay on NCI-H226 lung, > 10 µM and 16.8 µM; with SF-268 CNS, > 10 µM and 7.8 µM; with MDA-MB-231 breast, 3.21 µM; in the assay with SN12C renal it was 4.32 µM and 14.1 µM; with OVCAR-8 ovarian, above 10 µM. Further, the TGI in the assay on SK-MEL-2 melanoma is > 10 µM and 6.29 µM; in the assay on K-562 leukemia, > 10 µM and 3.54 µM.
Regarding `O=C1CCCCN1CCCCC#Cc1ccccc1C#Cc1ccc([N+](=O)[O-])cc1`, the GI50 in the assay on UO-31 renal is 19.5 µM; in the assay with NCI-H226 lung, 5.03 µM; in the assay on SF-268 CNS, 11.7 µM; in the assay with OVCAR-3 ovarian it was 10.9 µM; in the assay on MDA-MB-231 breast it was 12.8 µM; in the assay on SN12C renal, 17.1 µM. The GI50 in the assay with OVCAR-8 ovarian is 2.81 µM; in the assay on SK-MEL-2 melanoma, 3.65 µM; with K-562 leukemia it was 3.6 µM; with SR leukemia it was 0.0255 µM. The TGI with UO-31 renal came out at 84.6 µM; with NCI-H226 lung, 22.1 µM; in the assay on SF-268 CNS, 27.3 µM; in the assay with OVCAR-3 ovarian it was 23.6 µM; in the assay on MDA-MB-231 breast it was 51.4 µM; in the assay with SN12C renal, 37.3 µM. The TGI in the assay on OVCAR-8 ovarian came out at 9.13 µM; with SK-MEL-2 melanoma, 16.7 µM; in the assay on K-562 leukemia, 22.3 µM; in the assay on SR leukemia, 2.14 µM.
